The values that follow come from patent publication US20150218141A1, “SUBSTITUTED CARBAMATE COMPOUNDS” (HOFFMANN-LA ROCHE INC, priority 2012, published 2015).

SMILES strings stand for the structures. Structures can show the parent of a compound that is named as a salt.

What is called IC50 is the point on the concentration scale where inhibition reaches its midpoint.

T1 sequence (O75762 whole entry): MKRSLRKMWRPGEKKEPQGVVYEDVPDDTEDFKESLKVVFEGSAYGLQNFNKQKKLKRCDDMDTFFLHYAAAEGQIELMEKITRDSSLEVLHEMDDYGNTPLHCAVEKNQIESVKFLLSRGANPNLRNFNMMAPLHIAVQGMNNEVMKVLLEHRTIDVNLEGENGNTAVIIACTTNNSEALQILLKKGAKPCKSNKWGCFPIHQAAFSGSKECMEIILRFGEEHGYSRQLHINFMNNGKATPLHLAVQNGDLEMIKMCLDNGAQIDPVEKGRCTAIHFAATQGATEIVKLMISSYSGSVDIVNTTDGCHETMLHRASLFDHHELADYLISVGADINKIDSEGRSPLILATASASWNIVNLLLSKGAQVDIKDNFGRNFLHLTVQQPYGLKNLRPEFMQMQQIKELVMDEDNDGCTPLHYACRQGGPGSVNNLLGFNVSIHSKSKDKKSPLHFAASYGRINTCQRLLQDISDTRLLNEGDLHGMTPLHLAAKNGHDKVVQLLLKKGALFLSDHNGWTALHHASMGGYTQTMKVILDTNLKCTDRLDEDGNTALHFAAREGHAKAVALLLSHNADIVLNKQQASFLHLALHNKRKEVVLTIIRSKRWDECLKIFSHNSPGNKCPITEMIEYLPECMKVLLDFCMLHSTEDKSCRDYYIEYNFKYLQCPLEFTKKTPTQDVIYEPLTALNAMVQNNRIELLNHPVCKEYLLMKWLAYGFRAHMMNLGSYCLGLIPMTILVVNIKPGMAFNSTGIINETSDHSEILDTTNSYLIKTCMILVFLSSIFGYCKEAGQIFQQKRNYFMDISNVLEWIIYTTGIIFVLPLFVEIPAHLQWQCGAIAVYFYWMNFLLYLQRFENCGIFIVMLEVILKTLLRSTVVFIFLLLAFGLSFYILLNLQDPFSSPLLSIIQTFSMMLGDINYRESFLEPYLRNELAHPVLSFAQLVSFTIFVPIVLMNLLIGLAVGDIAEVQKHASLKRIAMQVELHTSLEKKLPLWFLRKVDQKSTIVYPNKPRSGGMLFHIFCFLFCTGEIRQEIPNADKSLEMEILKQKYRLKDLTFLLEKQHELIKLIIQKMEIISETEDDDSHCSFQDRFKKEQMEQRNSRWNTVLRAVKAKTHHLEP

This test addresses T1, hTRPA1 (Homo sapiens, UniProt O75762).
T1 construct: host or cells: CHO-K1 Tet-On, Clone 20 (Chinese Hamster Ovary cells, inducible expression)
Nature of the test: IC50 determination, dose response calcium flux (FLIPR) assay, ChanTest hTRPA1-CHO stably transfected cell line. The test is classed as cell-based. The conditions noted are these: CHO-K1 Tet-On hTRPA1 cells, 30' preincubation, agonist cinnamaldehyde final 100 uM. How it is done: IC50 Determination of Exemplified Compounds Dose Response Assay: ChanTest hTRPA1-CHO Stably Transfected Cell Line
CHO-K1 Tet-On_HOMSA_TRPA1_Clone—20
Growth Media for CHO-K1 Tet-On_HOMSA_TRPA1_Clone—20 • Ham's F-12 with 10% tetracycline-free FBS • 1× penicillin-streptomycin • 1× glutamax • 0.01 mg/ml Blasticidin • 0.40 mg/ml Zeocin • The cell line doubling rate was ˜15 hours. […] Experiments were run at 24 hours post induction.
Plating Conditions CHOK1/TRPA1 Cells: • Harvested cells with 0.025% trypsin/EDTA. • Resuspended cells in growth media without selection antibiotics. • Measured cell density and diluted to 2.4×10^5 cells/ml in media containing 1 ug/ml Doxycycline Plate 25 ul/well into 384 well black/clear tissue culture-treated plates. • Incubated overnight at 37° C.
Reagents: • Replacement Buffer: Hank's Balanced Salt Solution, 20 mM HEPES along with 0.005% BSA and 2× Probenecid • Dye Loading Buffer: Cal-3 NW Calcium dye was prepared by dissolving the contents of one vial with […] Hank's Balanced Salt Solution containing 20 mM HEPES. • Control compounds for CHOK1/TRPA1 cells: AP-18, stock 10 mM, prepare 3.5× compound dilution in a Compound Buffer (HBSS/20 mM HEPES/0.005% BSA)—final concentration 10 uM.
Preparation of Cinnamaldehyde (Agonist Addition):
• Specific gravity=1.046 gm/cc • 1.32 gm/1.046 gm/cc=1.26 ml of stock • Add 1.74 ml DMSO=3.3 M stock • Working solution 4.5× (final 100 uM in Compound Buffer: HBSS/20 mM HEPES/0.005% BSA)
Compounds dilutions were prepared from 5 or 10 mM stock (100% DMSO): • Adjustments of volumes and concentrations were made at time of titration to reflect desired final assay concentrations. • Compounds were tested at either 20 μM three folds dilution 11 steps out or 30 μM two folds dilution 11 steps out. • 3 μl of diluted compound were transferred into Weidmann 384-well plate in duplicates side-by-side.
Compound plates were resuspended with 100 ul of HBSS/20 mM HEPES/0.005% BSA buffer (Compound Buffer):
Growth media was removed from the cell plates (20 ul) and 20 ul of the Replacement Buffer was added followed by addition of 25 ul of diluted dye. All three steps were performed using a Plate Washer BioTek 407. The plates were then incubated for 30′ at RT.
After incubation, both the cell and compound plates were brought to the FLIPR and 20 ul of the diluted compounds/antagonist/bk were transferred to the cell plates by the FLIPR. Plates were then incubated for 30′ at room temperature. After 30′ incubation, plates were returned to the FLIPR and 20 ul of 4.5× Cinnamaldehyde was added to the cell plates. During the compound addition as well as agonist addition, fluorescence readings were taken simultaneously from all 384 wells of the cell plate every 1.5 seconds. Five readings were taken to establish a stable baseline, then 20 ul of sample was rapidly (30 ul/sec) and simultaneously added to each well of the cell plate. The fluorescence was continuously monitored before, during and after sample/agonist addition for a total elapsed time of 100 seconds (compound addition) and 120 seconds (agonist addition). Responses (increase in peak fluorescence) in each well following agonist addition was determined. The initial fluorescence reading from each well, prior to ligand stimulation, was used a zero baseline value for the data from that well.
A general note: A change in cytosolic calcium serves as a functional read-out for many receptors and channels.
On to `O=C(Nc1ccc(Cl)cc1)O[C@@H](CN1CCCC(Oc2cccc(OC(F)(F)F)c2)C1)C(F)(F)F` (stereo partly drawn) [Example 50, (4-Chlorophenyl)-carbamic acid (S)-2,2,2-trifluoro-1-[3-(3-trifluoromethoxyphenoxyl)piperidin-1-ylmethyl]-ethyl ester hydrochloride], for which the 50% inhibitory concentration (IC50) came out at 55.1 nM.

As for `O=C(Nc1ccc(Cl)cc1)O[C@@H](CN1CCCC(COc2ccc(F)cc2)C1)C(F)(F)F` (stereo partly drawn) [Example 51, (4-Chlorophenyl)-carbamic acid (S)-2,2,2-trifluoro-1-[3-(4-fluorophenoxymethyl)-piperidin-1-ylmethyl]-ethyl ester hydrochloride], the IC50 is 178 nM. As for `O=C(Nc1ccc(Cl)cc1)O[C@@H](CN1CCC[C@H](Oc2ccc(Cl)cc2)C1)C(F)(F)F` [Example 52a, (4-Chlorophenyl)-carbamic acid (S)-1-[(S)-3-(4-chlorophenoxy)-piperidin-1-ylmethyl]-2,2,2-trifluoroethyl ester hydrochloride], the figure is 114 nM. The figure for `O=C(Nc1ccc(Cl)cc1)O[C@@H](CN1CCC[C@@H](Oc2ccc(Cl)cc2)C1)C(F)(F)F` [Example 52b, (4-Chlorophenyl)-carbamic acid (S)-1-[(R)-3-(4-chlorophenoxy)-piperidin-1-ylmethyl]-2,2,2-trifluoroethyl ester hydrochloride] is 961 nM; for `O=C(Nc1ccc(Cl)cc1)O[C@@H](CN1CCCC(c2ccccn2)C1)C(F)(F)F` (stereo partly drawn) [Example 53, (4-Chlorophenyl)-carbamic acid (S)-2,2,2-trifluoro-1-(3′,4′,5′,6′-tetrahydro-2′H-[2,3′]bipyridinyl-1′-ylmethyl)-ethyl ester hydrochloride] it is 1920 nM; for `N#Cc1ccnc(OC2CCCN(C[C@H](OC(=O)Nc3ccc(Cl)cc3)C(F)(F)F)C2)c1` (stereo partly drawn) [Example 54, (4-Chlorophenyl)-carbamic acid (S)-1-[3-(4-cyanopyridin-2-yloxy)-piperidin-1-ylmethyl]-2,2,2-trifluoroethyl ester hydrochloride] it is 596 nM.

For the compound `O=C(Nc1ccc(Cl)cc1)O[C@@H](CN1CCCC(OCc2cccnc2)C1)C(F)(F)F` (stereo partly drawn) [Example 55, (4-Chlorophenyl)-carbamic acid (S)-2,2,2-trifluoro-1-[3-(pyridin-3-ylmethoxy)-piperidin-1-ylmethyl]-ethyl ester hydrochloride], the 50% inhibitory concentration (IC50) was determined as 803 nM.

In the case of `O=C(Nc1ccc(Cl)cc1)O[C@@H](CN1CCCC(c2cccc(C(F)(F)F)n2)C1)C(F)(F)F` (stereo partly drawn) [Example 56, (4-Chlorophenyl)-carbamic acid (S)-2,2,2-trifluoro-1-(6-trifluoromethyl-3′,4′,5′,6′-tetrahydro-2′H-[2,3′]bipyridinyl-1′-ylmethyl)-ethyl ester hydrochloride], the IC50 was 246 nM. As for `O=C(Nc1ccc(Cl)cc1)O[C@@H](CN1CCCC(c2ccc(C(F)(F)F)nc2)C1)C(F)(F)F` (stereo partly drawn) [Example 57, (4-Chlorophenyl)-carbamic acid (S)-2,2,2-trifluoro-1-(6′-trifluoromethyl-3,4,5,6-tetrahydro-2H-[3,3′]bipyridinyl-1-ylmethyl)-ethyl ester hydrochloride], the figure is 342 nM.

On to `O=C(Nc1ccc(Cl)cn1)O[C@@H](CN1CCC[C@H](c2cccc(C(F)(F)F)c2)C1)C(F)(F)F` [Example 58, (5-Chloropyridin-2-yl)-carbamic acid (S)-2,2,2-trifluoro-1-[(R)-3-(3-trifluoromethyl-phenyl)-piperidin-1-ylmethyl]-ethyl ester hydrochloride], for which the concentration for half-maximal inhibition (IC50) was 174 nM. For `O=C(Nc1ccc(Cl)cn1)O[C@@H](CN1CCCC(c2cccc(C(F)(F)F)c2)C1)C(F)(F)F` (stereo partly drawn) [Example 59, (5-Chloropyridin-2-yl)-carbamic acid (S)-2,2,2-trifluoro-1-[3-(3-trifluoromethylphenyl)-piperidin-1-ylmethyl]-ethyl ester hydrochloride], the half-inhibitory concentration (IC50) amounted to 270 nM. As for `COc1cccc(C2CCCN(C[C@H](OC(=O)Nc3ccc(Br)cc3)C(F)(F)F)C2)c1` (stereo partly drawn) [Example 60, (4-Bromophenyl)-carbamic acid (S)-2,2,2-trifluoro-1-[3-(3-methoxyphenyl)-piperidin-1-ylmethyl]-ethyl ester hydrochloride], the figure is 365 nM; as for `COc1cccc(C2CCCN(C[C@H](OC(=O)Nc3ccc(F)cc3)C(F)(F)F)C2)c1` (stereo partly drawn) [Example 61, (4-Fluorophenyl)-carbamic acid (S)-2,2,2-trifluoro-1-[3-(3-methoxyphenyl)-piperidin-1-ylmethyl]-ethyl ester hydrochloride], 273 nM. Consider `CS(=O)(=O)c1cccc(C2CCCN(C[C@H](OC(=O)Nc3ccc(Cl)cc3)C(F)(F)F)C2)c1` (stereo partly drawn) [Example 62, (4-Chlorophenyl)-carbamic acid (S)-2,2,2-trifluoro-1-[3-(3-methanesulfonylphenyl)-piperidin-1-ylmethyl]-ethyl ester hydrochloride], for which the concentration for half-maximal inhibition (IC50) was 1160 nM. As for `CS(=O)(=O)c1cccc(C2CCCN(C[C@H](OC(=O)Nc3ccc(F)cc3)C(F)(F)F)C2)c1` (stereo partly drawn) [Example 63, (4-Fluorophenyl)-carbamic acid (S)-2,2,2-trifluoro-1-[3-(3-methanesulfonylphenyl)-piperidin-1-ylmethyl]-ethyl ester hydrochloride], the IC50 amounted to 2910 nM. For `O=C(Nc1ccc(Cl)cc1)O[C@@H](CN1CCC(Cc2ccccc2)C1)C(F)(F)F` (stereo partly drawn) [Example 64, (4-Chlorophenyl)-carbamic acid (S)-1-(3-benzylpyrrolidin-1-ylmethyl)-2,2,2-trifluoro-ethyl ester], the half-inhibitory concentration (IC50) came out at 4990 nM.

Regarding `O=C(Nc1ccc(F)c(Cl)c1)O[C@@H](CN1CCCC(c2cccc(C(F)(F)F)c2)C1)C(F)(F)F` (stereo partly drawn) [Example 65, (3-Chloro-4-fluoro-phenyl)-carbamic acid (S)-2,2,2-trifluoro-1-[3-(3-trifluoromethyl-phenyl)-piperidin-1-ylmethyl]-ethyl ester], the half-maximal inhibitory concentration (IC50) turned out to be 257 nM. As for `O=C(Nc1ccc(Cl)c(Cl)c1)O[C@@H](CN1CCCC(c2cccc(C(F)(F)F)c2)C1)C(F)(F)F` (stereo partly drawn) [Example 66, (3,4-Dichlorophenyl)-carbamic acid(S)-2,2,2-trifluoro-1-[3-(3-trifluoromethyl-phenyl)piperidin-1-ylmethyl]-ethyl ester], the figure is 200 nM; as for `O=C(Nc1ccc(F)c(F)c1)O[C@@H](CN1CCCC(c2cccc(C(F)(F)F)c2)C1)C(F)(F)F` (stereo partly drawn) [Example 67, (3,4-Difluorophenyl)-carbamic acid (S)-2,2,2-trifluoro-1-[3-(3-trifluoromethylphenyl)piperidin-1-ylmethyl]-ethyl ester], 177 nM; as for `O=C(Nc1ccc(Cl)nc1)O[C@@H](CN1CCCC(c2cccc(C(F)(F)F)c2)C1)C(F)(F)F` (stereo partly drawn) [Example 68, (6-Chloropyridin-3-yl)-carbamic acid (S)-2,2,2-trifluoro-1-[3-(3-trifluoromethylphenyl)-piperidin-1-ylmethyl]-ethyl ester], 192 nM.
